{"source": "patent US8580733B2", "about": "“Site-specific monoconjugated insulinotropic GLP-1 peptides” (Bio-Ker SRL, priority 2008, dated 2013)", "key": {"diabetic (db/db) mice": {"tested_on": "diabetic (db/db) mice", "assay": "Oral glucose tolerance test in diabetic mice", "type": "in vivo", "settings": "for Tglu<100 mg/dl (time to lower the blood glucose level under 100 (±5) mg/dl) / Glumax (maximum blood glucose level) / HD% control (total hypoglycemic degree as percent of saline control): 100 μg/kg 30 min before oral glucose […]; for Glumax (maximum blood glucose level): first 180 min; for HD% control (total hypoglycemic degree as percent of saline control): AUC 0-180 min vs saline", "description": "Food was withdrawn for an 18-h period prior to and for 3 hours after oral administration of a glucose solution (1.5 g/kg body weight); food was again […] 6 hours after glucose administration. 40 μg/ml of products to be tested and negative control (phosphate buffered saline) were administered by subcutaneous injection of a volume of 2.5 ml/kg body weight, 30 minutes prior glucose administration. Blood samples were collected from the tail vein of conscious mice before the injection and at 15, 30, 60, 120, 180, 240, 300, 1440 min post injection and glucose concentration was measured by gluco tester Ascensia Elite (Bayer)."}, "[1]": {"molecular_target": "T1, DPP-IV (Dipeptidyl peptidase IV from porcine kidney) (Sus scrofa, UniProt P22411)", "T1 construct": "purchased Sigma; host or cells: porcine kidney (tissue-derived)", "T1 sequence (P22411 whole entry)": "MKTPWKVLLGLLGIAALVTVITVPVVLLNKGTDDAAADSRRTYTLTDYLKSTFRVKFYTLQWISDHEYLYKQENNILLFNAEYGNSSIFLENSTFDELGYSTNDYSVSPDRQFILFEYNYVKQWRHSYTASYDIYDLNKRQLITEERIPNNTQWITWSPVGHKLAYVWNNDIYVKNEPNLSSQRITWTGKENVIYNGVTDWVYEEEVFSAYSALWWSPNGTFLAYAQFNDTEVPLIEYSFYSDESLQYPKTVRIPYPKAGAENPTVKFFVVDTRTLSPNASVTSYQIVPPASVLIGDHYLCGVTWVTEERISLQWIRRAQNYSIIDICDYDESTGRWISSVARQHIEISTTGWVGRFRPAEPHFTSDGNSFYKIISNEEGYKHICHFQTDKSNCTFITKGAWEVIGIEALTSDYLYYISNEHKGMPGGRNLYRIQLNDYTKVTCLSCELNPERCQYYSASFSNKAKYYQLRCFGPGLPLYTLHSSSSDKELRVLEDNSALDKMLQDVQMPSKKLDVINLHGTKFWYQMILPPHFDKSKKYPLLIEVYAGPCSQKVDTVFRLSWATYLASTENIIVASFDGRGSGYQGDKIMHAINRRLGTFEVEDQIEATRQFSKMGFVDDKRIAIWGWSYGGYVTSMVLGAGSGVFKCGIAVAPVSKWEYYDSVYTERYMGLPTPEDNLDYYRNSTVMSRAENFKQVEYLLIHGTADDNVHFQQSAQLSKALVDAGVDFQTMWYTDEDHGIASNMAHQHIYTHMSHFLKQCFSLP", "assay": "In vitro stability to DPP-IV digestion", "type": "in vitro ADME", "settings": "for Degradation % at 24 h: peptide 0.1 mg/ml in PBS", "description": "The enzymatic degradation was calculated from His-Ala title of each sample, as shown for example in FIG. 1"}}, "note": "Ends that are not written are not given here."}
{"compound": "GLP-1-amide-Q17-PEG 20 kDa: GLP-1-amide monopegylated on glutamine 17 with 20 kDa m-PEG-amine by microbial transglutaminase", "values": [{"measurement": "final biological efficacy compared with exenatide", "setting": "diabetic (db/db) mice", "value": "comparable or better than the one displayed by exenatide"}, {"measurement": "Tglu<100 mg/dl (time to lower the blood glucose level under 100 (±5) mg/dl)", "setting": "diabetic (db/db) mice", "value": 60, "unit": "min"}, {"measurement": "Glumax (maximum blood glucose level)", "setting": "diabetic (db/db) mice", "value": 213.9, "unit": "mg/dL"}, {"measurement": "HD% control (total hypoglycemic degree as percent of saline control)", "setting": "diabetic (db/db) mice", "value": 58.3, "unit": "%"}, {"measurement": "Degradation % at 24 h", "setting": "[1]; DPP-IV 5 U/ml, 37° C.", "value": 37, "unit": "%"}]}
{"compound": "CC[C@H](C)[C@H](NC(=O)[C@H](Cc1ccccc1)NC(=O)[C@H](CCC(=O)O)NC(=O)[C@H](CCCCN)NC(=O)[C@H](C)NC(=O)[C@H](C)NC(=O)[C@H](CCC(N)=O)NC(=O)CNC(=O)[C@H](CCC(=O)O)NC(=O)[C@H](CC(C)C)NC(=O)[C@H](Cc1ccc(O)cc1)NC(=O)[C@H](CO)NC(=O)[C@H](CO)NC(=O)[C@@H](NC(=O)[C@H](CC(=O)O)NC(=O)[C@H](CO)NC(=O)[C@@H](NC(=O)[C@H](Cc1ccccc1)NC(=O)[C@@H](NC(=O)CNC(=O)[C@H](CCC(=O)O)NC(=O)[C@H](C)NC(=O)[C@@H](N)Cc1c[nH]cn1)[C@@H](C)O)[C@@H](C)O)C(C)C)C(=O)N[C@@H](C)C(=O)N[C@@H](Cc1c[nH]c2ccccc12)C(=O)N[C@@H](CC(C)C)C(=O)N[C@H](C(=O)N[C@@H](CCCCN)C(=O)NCC(=O)N[C@@H](CCCNC(=N)N)C(N)=O)C(C)C", "note": "[GLP-1-amide, GLP-1(7-36)-amide, reference compound]", "values": [{"measurement": "Degradation % (at 8 h)", "setting": "[1]; DPP-IV 5 U/ml, 37° C., at 8 h", "value": "100 (at 8 h) %"}, {"measurement": "inactivation by cleavage of the N-terminal dipeptide", "setting": "[1]; DPP-IV, after 8 hours at 37° C.", "value": "completely inactivated"}]}
{"compound": "GLP-1-amide-Q17-PEG 30 kDa: GLP-1-amide monopegylated on glutamine 17 with 30 kDa m-PEG-amine by microbial transglutaminase", "values": [{"measurement": "final biological efficacy compared with exenatide", "setting": "diabetic (db/db) mice", "value": "comparable or better than the one displayed by exenatide"}, {"measurement": "Tglu<100 mg/dl (time to lower the blood glucose level under 100 (±5) mg/dl)", "setting": "diabetic (db/db) mice", "value": 60, "unit": "min"}, {"measurement": "Glumax (maximum blood glucose level)", "setting": "diabetic (db/db) mice", "value": 167.7, "unit": "mg/dL"}, {"measurement": "HD% control (total hypoglycemic degree as percent of saline control)", "setting": "diabetic (db/db) mice", "value": 63.5, "unit": "%"}, {"measurement": "Degradation % at 24 h", "setting": "[1]; DPP-IV 5 U/ml, 37° C.", "value": 25, "unit": "%"}]}
{"compound": "GLP-1-amide-Q17N/A24Q-PEG 20 kDa: Q17N/A24Q-GLP-1-amide monopegylated on glutamine 24 with 20 kDa m-PEG-amine by microbial transglutaminase (HAEGTFTSDVSSYLEGNAAKEFIQ(PEG 20 kDa)WLVKGRG-NH2; UniProt P01275 98-128, looked up, variant Q17N A24Q)", "values": [{"measurement": "Degradation % at 24 h", "setting": "[1]; DPP-IV 5 U/ml, 37° C.", "value": 41, "unit": "%"}]}
{"compound": "HAEGTFTSDVSSYLEGNAAKEFIQWLVKGR-NH2 [GLP-1-amide-Q17N/A24Q]", "values": [{"measurement": "Degradation % at 24 h", "setting": "[1]; DPP-IV 5 U/ml, 37° C.", "value": 90, "unit": "%"}]}
